Laboratory results reported in patent US20240216410A1, “METHODS AND COMPOSITIONS FOR TREATING CANCER THERAPY-INDUCED NEUTROPENIC FEVER AND/OR GVHD” (BOARD OF REGENTS, THE UNIVERSITY OF TEXAS SYSTEM, priority 2021, published 2024).

Experiments:
[1] = Meropenem concentrations in cecal contents after subcutaneous injection (LC-MS); assay type: in vivo, mice; settings: 4, 8, 24, 48 and 96 hours
Method: To further explore a potential causal relationship between meropenem and intestinal GVHD, the effects of meropenem on GVHD in a mouse model of allo-HSCT were examined. A method of administering meropenem to mice was first developed that would better mimic the effects of meropenem on the intestinal microbiome of patients, which is typically given every 8 hours intravenously. Previously, antibiotics were administered subcutaneously to mice (25), and meropenem concentrations were quantified in the cecal lumen of mice 4, 8, 24, 48 and 96 hours after subcutaneous injection. […] Next, drinking water was evaluated as a means of continuously administering meropenem to mice, using bacterial density quantified by 16S ribosomal RNA (16S rRNA) gene quantitative PCR (qPCR) to gauge reductions of the intestinal microbiota.
Pharmacokinetics of meropenem by Triple Quadruple liquid chromatography-mass spectrometry (LC-MS). C57BL/6 mice were treated with 10 mg of meropenem by subcutaneously injection. Cecal contents were collected prior to, 4, 8, 24, 48, and 96 hours after meropenem injection. To determine the relative abundance of meropenem in mouse cecum samples, extracts were prepared and analyzed with a THERMO […]™ TSQ […]™ triple quadruple mass spectrometer coupled with a DIONEX™ ULTIMATE™ 3000 HPLC system. […]

[2] = system: murine BT GH2 β-galactosidase, GH33 sialidase, GH29 α-L-fucosidase; assay: RNA sequencing of stool from allo-HSCT mice: BT PUL expression; assay type: in vivo, Bacteroides thetaiotaomicron; settings: day 18, allo-HSCT mice with vs without meropenem
Method: Thus, in some cases, meropenem treatment during GVHD may lead to alterations in the behavior of BT. To evaluate this further, RNA sequencing of stool samples from allo-HSCT mice without and with meropenem treatment was performed. Also examined was the genome of mouse-derived BT isolate MDA-JAX BT001 (FIG. 23), and open reading frames (ORF) were identified, which were then assigned to polysaccharide utilization loci (PUL) using the Polysaccharide-Utilization Loci DataBase (PULDB) (41).
RNA sequencing and analysis. Approximately 30 mg of stool was freshly collected in 700 μL of ice cold QIAZOL® containing 200 μL of 0.1 mm diameter Zirconia Silica beads (11079101z, BioSpec). Samples were bead beaten twice for 2 min with a 30 second interval recovery. Samples were then centrifuged at 12,000 g for 1 min and the supernatant was collected for RNA isolation using the RNeasy mini kit (74104, QIAGEN®). […] RNA quantity and quality was determined using an Agilent 4200 TapeStation system (Agilent). […] The cDNA libraries were sequenced on the […]® MISEQ™ system to produce 1×300 bp single-end reads, resulting in ˜1 million reads per sample. […] The total reads of mouse stool samples were 950923±113406 (mean±standard deviation). […] Aligned mRNA expression changes were calculated using the Mann-Whitney U test in R software version 3.6.0 via RStudio version 1.2.1335. […]

**Q.** With `C[C@@H](O)[C@H]1C(=O)N2C(C(=O)O)=C(S[C@@H]3CN[C@H](C(=O)N(C)C)C3)[C@H](C)[C@H]12` [meropenem] as the compound, how does the “meropenem concentrations in the cecum” value [1] read?
**A.** Its value is “increase in meropenem concentrations in the cecum at 4 hours after injection, which rapidly declined thereafter”.

**Q.** What about the “expression in murine BT of GH2 β-galactosidase, GH33 sialidase and GH29 α-L-fucosidase” value [2] of the same compound?
**A.** Its value is “upregulated expression”.
